Source: patent EP0056560A1, “Active antibiotic compositions, process for their manufacture and process for the antibiotic activity of antibiotics” (CIBA-GEIGY AG, priority 1981, dated 1982)

Experiments:
Assay in all cases: Mouse protection test: i.p. infection, s.c. treatment with the antibiotic alone or combined with muramyl peptide, survivors counted
Assay type in all cases: in vivo, weisse Laboratoriums-Mäuse
Klebsiella pneumoniae = conditions: mice infected i.p. with 2 x 10^4 cfu Klebsiella pneumoniae; Cefroxadin s.c. immediately and 3 h after infection, combined with 10 mg/kg N-Acetyl-muramyl-L-alanyl-D-isoglutaminyl-L-alanyl-2-(1',2'-dipalmitoyl-sn-glycero-3'-hydroxyphosphoryloxy)-äthylamid, compared with Cefroxadin alone; survivors counted after 4 or 10 days
Source text: (§1) Die hohe antibiotische Wirkung der neuen Präparate und des neuen Verfahrens kann durch "in vivo"-Versuche nachgewiesen werden, die an verschiedenen Tierarten, insbesondere an Säugetieren, wie Mäusen, durchgeführt werden. Dazu infiziert man sie mit einer letalen oder subletalen Dosis eines pathogenen Mikroorganismus und gibt dann das genannte neue Präparat bzw. die einzelnen Dosen an Muramylpeptid und Antibiotikum. Die Wirkung wird als ED50 bestimmt, das ist diejenige Dosis, bei der 50% der Tiere überleben.
(§2) Beispiel 4: Man infiziert weisse Laboratoriums-Mäuse auf i.p. Wege mit 2 x 10^4 cfu (colony forming units) Klebsiella pneumoniae, 0,1 x 10^4 cfu Pasteurella multocida oder 40 x 10^4 cfu Salmonella typhimurium in Salzlösung, so dass 90-100Z der nicht behandelten Kontrolltiere innerhalb von 48 Stunden getötet werden. Unmittelbar, sowie 3 Stunden nach der Infektion werden Gruppen zu je 10 Mäusen mit Cefroxadin, sowohl allein (ohne Muramylpeptid) als auch in Kombination mit 10 mg/kg N-Acetyl-muramyl-L-alanyl-D-isoglutaminyl-L-alanyl-2-(1',2'-dipalmitoyl-sn-glycero-3'-hydroxyphosphoryloxy)-äthylamid behandelt, wobei dieselben zweimal in Form wässriger Lösungen oder Suspensionen auf subkutanem Weg verabreicht werden. Nach 4 bzw. 10 Tagen nach erfolgter Infektion wurden die überlebenden Tiere gezählt.

Pasteurella multocida = conditions: mice infected i.p. with 0,1 x 10^4 cfu Pasteurella multocida; Cefroxadin s.c. immediately and 3 h after infection, combined with 10 mg/kg N-Acetyl-muramyl-L-alanyl-D-isoglutaminyl-L-alanyl-2-(1',2'-dipalmitoyl-sn-glycero-3'-hydroxyphosphoryloxy)-äthylamid, compared with Cefroxadin alone; survivors counted after 4 or 10 days
Source text: as §1, §2

Salmonella typhimurium = conditions: mice infected i.p. with 40 x 10^4 cfu Salmonella typhimurium; Cefroxadin s.c. immediately and 3 h after infection, combined with 10 mg/kg N-Acetyl-muramyl-L-alanyl-D-isoglutaminyl-L-alanyl-2-(1',2'-dipalmitoyl-sn-glycero-3'-hydroxyphosphoryloxy)-äthylamid, compared with Cefroxadin alone; survivors counted after 4 or 10 days
Source text: as §1, §2

Measured: ED50-Werte für das Antibiotikum bei kombinierter Gabe mit dem Muramylpeptid

COC1=C(C(=O)O)N2C(=O)[C@@H](NC(=O)[C@H](N)C3=CCC=CC3)[C@H]2SC1 [Cefroxadin, 7ß-[D-2-amino-2-(1,4-cyclohexadienyl)-acetamido]-3-methoxy-3-cephem-4-carbonsäure]
um ein Mehrfaches niedriger: all assays above
